Assay results: PMC6331991, “Anemarrhena asphodeloides Non-Steroidal Saponin Components Alter the Pharmacokinetic Profile of Its Steroidal Saponins in Rat” (Molecules, 2015)
Like-named read-outs stand apart in the source and are kept apart here.

Columns and labels:
[1] = Pharmacokinetic study of four steroidal saponins in rat plasma after oral administration of A. asphodeloides fractions (UPLC-MS/MS); type: in vivo, Sprague-Dawley rats; conditions: rat, in vivo, po; for AUC(0-t) / half-life / Cmax / Tmax: male, Sprague-Dawley, 400 mg/kg
Method: The dried A. asphodeloides were chopped into slices before using. The A. asphodeloides was immersed in water (1:10, w/v) and extracted twice by refluxing for 2 h. After filtration, the supernatant was condensed to a certain volume under reduced pressure, and 95% ethanol was added to the water extract filtrates until the concentration of ethanol was 80%. The precipitate was filtered as the macromolecular fraction (MF), the ethanol supernatant was concentrated under reduced pressure to a certain volume under vacuum and then purified by gradient elution with water, 40% ethanol and 70% ethanol from an AB-8 MARO porous resin column and then the water-eluted fraction was combined with the 40% ethanol-eluted fraction as the small molecule fraction (SF) and the 70% ethanol eluted fraction was the A. asphodeloides saponins extract (ASE). All of the residues were lyophilized and the resulting dry powder was stored at 4 °C before usage. The contents of four steroidal saponins in ASE dry powder were measured quantitatively by the external standard method using the same chromatography conditions as described above. The contents of timosaponin BII, anemarsaponin BIII, timosaponin AIII and timosaponin E1 in ASE were 429.12, 89.81, 59.13 and 41.25 mg/g, respectively.
Frozen plasma samples were unfrozen at room temperature and treated as follows: to each 200 µL plasma sample, 20 µL of IS (920 ng/mL ginsenoside Re) working solution and 600 µL of acetonitrile were added. After vortexing for 2 min and centrifugation at 13,000 rpm at 4 °C for 10 min the supernatant was transferred into a new tube and evaporated to dryness in a rotary evaporator at 39 °C and the residue was reconstituted in 100 µL of 0.1% formic acid–acetonitrile (50:50, v/v), vortexed for 2 min and centrifuged at 13,000 rpm at 4 °C for 10 min. The supernatant was transferred to an autosampler vial and an aliquot of 2 μL was injected onto the UPLC-MS/MS system for analysis.
Male Sprague-Dawley rats (250–280 g) were obtained from the Shanghai Slac Laboratory Animal Co., Ltd. (Shanghai, China). All animals were kept in an environmentally controlled breeding room (temperature: 20–25 °C, humidity: 55%–65%) for 1 week before the experiments started. Animal welfare and experimental procedures were strictly in accordance with the ethical norms of the Nanjing University of Chinese Medicine. All rats were fasted for 12 h with free access to water prior to the experiments, twenty-four rats were divided into four groups and then were given a single dose of ASE, ASE-SF, AS-MF, AS-M-SF. A 40 mg/mL ASE (the amount of MF, SF added to group AS-MF, ASE-SF, AS-M-SF were based on the proportion extracted from A. asphodeloides) aqueous solution in each group was administered orally at a dose of 400 mg/kg, which contained 171.61, 35.92, 23.62, 16.53 mg/kg of timosaponin BII, anemarsaponin BIII, timosaponin AIII, timosaponin E1, respectively.
About 400 μL blood samples were collected from venipuncture before intragastric gavage and at 0.083, 0.25, 0.5, 1, 1.5, 2, 4, 6, 8, 10, 12, 24 h after a single oral administration. The blood samples were immediately transferred to heparinized tubes and centrifuged at 3000 rpm for 10 min, and the supernatant was transferred into 2.0 mL Eppendorf tubes and stored at −80 °C prior to analysis. Blank plasma was obtained from the rat without oral administration and was used to investigate the assay development and validation.
To calculate the pharmacokinetic parameters of analytes in different group, concentrations–time dada were analyzed by DAS 3.2 software (Mathematical Pharmacology Professional Committee of China, Shanghai, China, 2011). Data were measured as the mean ± standard deviation (S.D.) with triplicate measurements. The identification of significances between different groups was executed with Student’s t-test. A p value < 0.05 was considered statistically significant.

[2] = set-up: method as in PMID 20686523, PMID 23542670; conditions: plasma concentration peak; cited from earlier work

Row | SMILES | AUC(0-t) [1] | half-life [1] | AUC(0-t) ([1]; AUC0–t) | Cmax [1] | half-life ([1]; T1/2) | Tmax [1] | T1/2 [1] | shape of plasma concentration-time curve [1] | shape of plasma concentration-time curve [2]
1 | CC1=C(CCC(C)COC2OC(CO)C(O)C(O)C2O)OC2CC3C4CCC5CC(OC6OC(CO)C(O)C(O)C6OC6OC(CO)C(O)C(O)C6O)CCC5(C)C4CCC3(C)C12 (centres unmarked) [Anemarsaponin BIII, anemarsaponin BIII] | 551 ± 75 ng·h/mL | 7.63 ± 3.37 h | 257 ± 20.4 ng·h/mL | 34.5 ± 3.75 ng/mL | 2.75 ± 1.14 h | 3.75 ± 1.78 h | no obvious difference | double peak | 
2 | C[C@H]1CC[C@@]2(OC1)O[C@H]1C[C@H]3[C@@H]4CC[C@@H]5C[C@@H](O)CC[C@]5(C)[C@H]4CC[C@]3(C)[C@H]1[C@@H]2C [sarsasapogenin] |  |  |  |  |  |  |  |  | single plasma concentration peak
3 | CC(CCC1(O)OC2C(O)C3C4CCC5CC(OC6OC(CO)C(O)C(O)C6OC6OC(CO)C(O)C(O)C6O)CCC5(C)C4CCC3(C)C2C1C)COC1OC(CO)C(O)C(O)C1O (centres unmarked) [Timosaponin E1, timosaponin E1] | 286 ± 36.8 ng·h/mL | 8.8 ± 3.83 h | 115 ± 5.35 ng·h/mL | 18.9 ± 1.54 ng/mL | 2.95 ± 0.4 h | 4 h | no obvious difference | double peak | 
